Data on 80 compounds can be found in the METLIN SMRT retention time set (Domingo-Almenara et al. 2019).

Each structure is given as a SMILES string.

This series is described as follows: gradient 5% acetonitrile 3 min, to 50% in 2 min, to 85% in 15 min, held 3 min, 100 µL/min. The settings on record: column: Zorbax Extend-C18 2.1 x 50 mm; eluents: water / acetonitrile, 0.1% formic acid. The procedure, abridged: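 Data were gathered over 3 months by HPLC coupled to a quadrupole time-of-flight mass spectrometer, operated in positive and negative ionization mode. Mixtures of ~100 pure standards ran on a Zorbax Extend-C18 column (2.1 × 50 mm, 1.8 μm) at 100 μL/min, with water and acetonitrile each containing 0.1% formic acid and dead and dwell volumes of 40 μL and 900 μL. Retention time was read from adduct peaks picked by computer and checked manually.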
Consider `CCOc1ccccc1-c1noc(Cn2c(=O)n(Cc3ccccc3Cl)c(=O)c3sccc32)n1`, for which the RP-LC retention time stood at 1160 s.

`CCCNC(=O)c1cc(N2CCCC2)n2nccc2n1` had an RP-LC retention time of 792 s.

Consider `CCCN(CCC)CCCNC(=O)C1CCCN(c2ncc(-c3ccccc3)cn2)C1` (stereo not given), for which the RP-LC retention time was found to be 719 s.

`CCOc1ccc(NC(=O)N2CCCC(C)(C(=O)NCc3ccccc3)C2)cc1` (stereo not given) had an RP-LC retention time of 859 s.

Turning to `O=C(Nc1ccc(Cl)cc1F)N1CCC(n2c(-c3ccco3)nc3cccnc32)C1` (stereo not given), the RP-LC retention time amounted to 827 s.

`O=C(NCCN1CCCCC1)c1ccc(I)cc1` returned an RP-LC retention time of 678 s.

As to `COc1ccc(OC)c(NC(=O)COc2nc(C)nc3ccccc23)c1`, the RP-LC retention time came out at 725 s.

`COc1ccc(OC)c(NC(=O)Cn2c(N3CCOCC3)nc(C)cc2=O)c1` came in with an RP-LC retention time of 695 s.

As for `CC(C)(C)C(=O)NCCN1C(=O)C2(CCCCC2)C1c1ccccc1` (stereo not given), the RP-LC retention time stood at 903 s.

In turn, `Cc1ccc(Nc2c(-c3ccc(C)cc3)nc3ncccn23)cc1` displayed an RP-LC retention time of 802 s.

`C=CCc1ccccc1OCCn1c(CN(C)C(=O)c2ccco2)nc2ccccc21`: the RP-LC retention time was 702 s.

With `Cc1ccc(-c2cc3n(n2)CCCN(C(=O)C2CCOC2)C3)cc1` (stereo not given), the RP-LC retention time stood at 712 s.

On to `CCN(CC)c1ccc(NC(=O)C2C(=O)NC3(C)CC2c2ccccc2O3)c(C)c1` (stereo not given), for which the RP-LC retention time came out at 640 s.

On to `O=C(C1CC(=O)N(c2ccc(F)cc2)C1)N1CC(c2nc(-c3ccccn3)no2)C1` (stereo not given), for which the RP-LC retention time is 650 s.

In turn, `CCc1ccc(S(=O)(=O)N2C[C@@H](F)C[C@H]2C(=O)N2CCc3ccccc3C2)cc1` gave an RP-LC retention time of 998 s.

Regarding `CC1CCN(S(=O)(=O)c2ccc(-c3nnc(C(=O)NCCC4=CCCCC4)o3)cc2)CC1`, the RP-LC retention time turned out to be 1190 s.

In turn, `COc1cc(-c2nnc(-c3cccc(S(=O)(=O)N4CCOCC4)c3)o2)cc(OC)c1OC` gave an RP-LC retention time of 852 s.

With `Cc1cccc2nnc(N3CCC(C(=O)NCc4ccc(N5CCCCC5)cc4)CC3)n12`, the RP-LC retention time was determined as 558 s.

`COc1ccccc1-c1cc(C(=O)N2CCCN(c3ccc(=O)n(-c4ccccc4)n3)CC2)[nH]n1` gave an RP-LC retention time of 750 s.

On to `Fc1ccc(Cn2cccc2-c2nc(-c3ccncc3)no2)cc1`, for which the RP-LC retention time was 1100 s.

On to `CCn1c(C)c(CN2CCC(C(=O)NCc3ccc(C)cc3)CC2)c2ccccc21`, for which the RP-LC retention time worked out at 733 s.

For the compound `Cn1nc(N)c2ncc(C(Cl)(Cl)Cl)nc21`, the RP-LC retention time was found to be 876 s.

`CCc1ccc(C2=C(C)C(N3CCC(C(=O)NC(C)C)CC3)=NS2(=O)=O)cc1` came in with an RP-LC retention time of 812 s.

Take `CCOC(=O)C1=C(CN2CCC(C)CC2)NC(=O)NC1c1ccc(C)cc1` (stereo not given): the RP-LC retention time is 656 s.

In turn, `CC(C)CCC(=O)N1CCC2(CC1)N(C)C(=O)CS2(=O)=O` came in with an RP-LC retention time of 644 s.

`O=C(Nc1ccc2c(c1)OCO2)C1CCc2sc(C(=O)N3CCCC3)cc2C1` (stereo not given) registered an RP-LC retention time of 730 s.

As for `CCOC(=O)c1c(C)[nH]c(C(=O)N2CCC(CC(=O)NCCN3CCOCC3)CC2)c1C`, the RP-LC retention time worked out at 575 s.

`Nc1ccccc1NC(=O)c1ccc(CNc2nccc(-c3cccnc3)n2)cc1`: the RP-LC retention time is 664 s.

Turning to `CCn1cnc(S(=O)(=O)N2CCCC(C(=O)Nc3cccc(Cl)c3)C2)c1` (stereo not given), the RP-LC retention time was 797 s.

`CC(C)(C)C(O)CCNC(=O)NCc1ccc(F)cc1` (stereo not given) had an RP-LC retention time of 705 s.

`CCOC(=O)c1sc(NC(=O)C2CCCCN2S(C)(=O)=O)cc1C` (stereo not given) gave an RP-LC retention time of 807 s.

With `CC(C)(Oc1ccc(Cl)cc1)C(=O)N1CCN(C(=O)C2CC2c2cccs2)CC1` (stereo not given), the RP-LC retention time came to 1020 s.

`Cc1nc(-c2nc(-c3cccs3)cs2)cn1CC(=O)NCc1ccc(F)cc1` showed an RP-LC retention time of 789 s.

In turn, `Cc1oc2c(c1C(=O)NC(C)c1ccccc1)C1=NC(C)(C)CN1C=N2` (stereo not given) gave an RP-LC retention time of 653 s.

Regarding `[O-][n+]1nc2ccccc2c2ccccc21`, the RP-LC retention time worked out at 812 s.

`Cc1ccc(S(=O)(=O)N2CCC(c3nc(C(=O)N(C)C)c(C)o3)CC2)cc1` came in with an RP-LC retention time of 818 s.

`CCc1nc2cc(-c3noc(-c4cc(F)ccc4F)n3)ccc2o1` gave an RP-LC retention time of 1180 s.

The compound `C=CCc1cc(C)ccc1OCC(O)Cn1cnc2ccccc21` (stereo not given) gave an RP-LC retention time of 630 s.

`COC(=O)c1ccc(Cl)cc1NC(=O)N1CCCn2nc(-c3ccncc3)cc2C1` gave an RP-LC retention time of 715 s.

Turning to `COc1ccc(-c2noc(NCCc3ccc(OC)c(OC)c3)n2)cc1`, the RP-LC retention time was 891 s.

In turn, `Cc1cc(C)cc(-c2nnc(Cc3nc(-c4ccc(Br)cc4)no3)o2)c1` had an RP-LC retention time of 1270 s.

`O=C(Cc1cccs1)N1CCc2c([nH]c3ccccc23)C1c1ccc(F)cc1` (stereo not given) yielded an RP-LC retention time of 1130 s.

Compound `COc1cccc(NC(=O)N2CCC3(CC2)NC(=O)c2ccc(Cl)cc2N3C)c1` gave an RP-LC retention time of 780 s.

In the case of `CN1C(=O)[C@H]2CN(Cc3cn[nH]c3-c3ccc(F)cc3)C[C@H]2C1=O`, the RP-LC retention time came out at 575 s.

`CCNc1cc(N2CCC(CCC(=O)Nc3ccc(OC)c(OC)c3)CC2)ncn1` came in with an RP-LC retention time of 614 s.

Regarding `Cc1ccc(-c2nnc(C)c(NC3CC3)n2)cc1`, the RP-LC retention time was found to be 644 s.

On to `Cc1cc(C)cc(S(=O)(=O)N2CCC(n3cnc4c(C)cccc4c3=O)CC2)c1`, for which the RP-LC retention time was determined as 1070 s.

The compound `Cc1ccccc1CNC(=O)c1ccc2c(c1)CC(=O)N2C` registered an RP-LC retention time of 714 s.

Turning to `O=C(c1ccc(F)c(F)c1)N1CCCC1c1nc(-c2ccccc2Cl)no1` (stereo not given), the RP-LC retention time was determined as 1000 s.

`CNC(=O)Cn1nc(C2CCN(C(=O)c3nccc4ccccc34)CC2)c2c1CCOC2` returned an RP-LC retention time of 609 s.

In the case of `CCCN(CCC)C(=O)Cn1c(CN(C)C(C)=O)nc2ccccc21`, the RP-LC retention time came out at 630 s.

In turn, `Cc1nnc(-c2ccc3ccn(CC(=O)N4CCN(c5ccccn5)CC4)c3c2)o1` showed an RP-LC retention time of 598 s.

Consider `O=C(C1CCN(c2nc3ccc(-c4cccnc4)nc3s2)CC1)N1CCCC1`, for which the RP-LC retention time was 615 s.

As for `O=C(Cc1cn2cc(Cl)ccc2n1)Nc1ccccc1`, the RP-LC retention time worked out at 614 s.

In turn, `Cn1cc(-c2cc3n(n2)CCC(=O)N3CC(=O)NCCCN2CCCCC2)c2ccccc21` returned an RP-LC retention time of 616 s.

In turn, `COc1cc([C@@H]2c3cc4c(cc3[C@H](O)[C@@H](CO)[C@@H]2C(=O)NCc2ccc(F)cc2)OCO4)cc(OC)c1OC` registered an RP-LC retention time of 720 s.

For the compound `O=C(Cc1cccnc1)N1CCC(c2nc(-c3ccncc3)no2)C1` (stereo not given), the RP-LC retention time worked out at 548 s.

In turn, `COc1ccc2[nH]cc(CCNC(=O)CCC(=O)N3Cc4cccn4-c4ccccc43)c2c1` registered an RP-LC retention time of 850 s.

In turn, `COc1ccc(S(=O)(=O)N2CC(C(=O)NC3CCCC3)Oc3cc(C)ccc32)cc1` (stereo not given) yielded an RP-LC retention time of 1100 s.

Compound `Cc1[nH]c(=O)[nH]c(=O)c1CCC(=O)N1CCC(c2nc3ccccc3o2)CC1` showed an RP-LC retention time of 600 s.

Regarding `COc1coc(C(=O)N2CCN(S(C)(=O)=O)CC2)cc1=O`, the RP-LC retention time amounted to 548 s.

In turn, `CCCn1ccc2sc(C)c(C(=O)NCc3ccccc3OCC)c2c1=O` came in with an RP-LC retention time of 982 s.

As to `Cc1ncc2c(n1)C[C@@H]1CC[C@H]2N1S(=O)(=O)c1ccc2c(c1)C(C)(C)C(=O)N2`, the RP-LC retention time stood at 636 s.

With `CCOc1ccc(NC(=O)C2CCCN(c3nc4ccccc4nc3C(F)(F)F)C2)cc1` (stereo not given), the RP-LC retention time came out at 1210 s.

The compound `COc1ccc(NC(=O)Cn2c(N3CCCC3)nc(C)cc2=O)cc1OC` registered an RP-LC retention time of 601 s.

The compound `CC(=O)Nc1ccc(C2(C(=O)N3CCCCC3)CCC2)cc1` showed an RP-LC retention time of 711 s.

The compound `CC(=O)N1CCCc2cc(S(=O)(=O)CCC(=O)Nc3cc(C)ccc3C)ccc21` gave an RP-LC retention time of 758 s.

Compound `COc1cccc(C(=O)Nc2nc(-c3ccc4c(c3)N(C)C(=O)CO4)c(C)s2)c1` displayed an RP-LC retention time of 978 s.

As to `O=C(c1ccc2c(c1)OCO2)N1CCC(Nc2ncnc3c2CCC3)C1` (stereo not given), the RP-LC retention time was 564 s.

Take `Cc1ccc(CNC(=O)Cn2c(=O)c3cc(-c4cccs4)nn3c3ncccc32)cc1`: the RP-LC retention time came to 868 s.

As to `CCOC(=O)c1ccc(NS(=O)(=O)N2CCOCC2)cc1`, the RP-LC retention time is 724 s.

On to `O=S(=O)(c1cccn2c(SCc3cccc(Cl)c3)nnc12)N1CCCC1`, for which the RP-LC retention time was found to be 860 s.

Compound `CCOc1cc(=O)n2c(c1C(=O)N1CCOCC1)CCCCC2` registered an RP-LC retention time of 601 s.

For the compound `Cc1cccc(S(=O)(=O)Nc2ccc3c(c2)CCC(=O)N3CC(C)C)c1`, the RP-LC retention time was found to be 896 s.

`CCCn1cc(S(=O)(=O)NCc2ccc(F)cc2)c2cccnc21` had an RP-LC retention time of 912 s.

`CC(C)CC(=O)N1CCc2cc(CNS(=O)(=O)Cc3ccccc3)ccc21`: the RP-LC retention time was 610 s.

Consider `COc1ccc2[nH]c3c(c2c1)CCNC3c1ccc(F)cc1` (stereo not given), for which the RP-LC retention time turned out to be 623 s.

`CCC(=O)N1CCc2sc(C(=O)N3CCN(c4ccccc4)CC3)cc2C1`: the RP-LC retention time turned out to be 794 s.

For the compound `CN(C)c1ccc(-c2nc3cnccn3c2Nc2cccc(C(N)=O)c2)cc1`, the RP-LC retention time was found to be 609 s.

With `O=C(Nc1ccc2nc3n(c(=O)c2c1)CCC3)Nc1ccc(F)cc1F`, the RP-LC retention time worked out at 686 s.
